This is an account of results in patent publication US7060290B1, “Phosphocholine linked prodrug derivatives” (Supergen, Inc., priority 1999, dated 2006).

Data set [1] has as its system cutaneous hypersensitivity immune response. In words: DNCB-induced cutaneous contact hypersensitivity (ear swelling) in mice. In kind it is in vivo, mice (Balb/c). The settings on record: for Effect on DNCB-induced cutaneous hypersensitivity immune response: 100 μg/day/mouse subcutaneously, twelve-day study, ear rechallenge with 1% DNCB, swelling on days 7–12; for Effect of dexamethasone on the response to the hormone: co-administered with dexamethasone, days 7–12. Here is the method: The effects of DHEA-PC on cutaneous contact hypersensitivity was studied. In this study, mice (Balb/c) were immunologically challenged with DNCB (2% in ethanol) applied to a 2 cm area on the back. The steroid was injected subcutaneously (100 μg/day/mouse) throughout the twelve-day study period. Ears were rechallenged with DNCB (1% in ethanol) on days 7–12 and swelling was measured daily in order to evaluate the effect on the immune system.

The nature of data set [2]: First-pass inactivation in the liver after oral administration. The settings on record: phosphocholine-derivatized form; stated as believed. The text has this:
Subsequently, only a fraction of a percent of the administered drug is biologically available for function. […] When the phosphocholine moiety is removed by an esterase, such as phospholipase C, sphingomyelinase, etc., then the parent compound will be available for binding and function in the target tissue. Glucuronidation would only occur on its return to the liver after removal of the phosphocholine moiety.

Data set [3] relates to neutral sphingomylenase. In words: Hydrolysis of DHEA-PC by neutral sphingomylenase. The format is biochemical. The procedure: DHEA-phosphocholine (DHEA-PC) was synthesized by sequential reaction of DHEA, choline, and water with phosphorous oxychloride. The synthetic product had the same HPLC retention time and the same mass-spectrum as did the endogenous, actual compound. […] When human serum extracts were analyzed, mass fragments were detected at the same retention time as synthetic material.

Data set [4] is described as follows: Water/benzene extraction of the tritiated DHEA-phosphocholine reaction product, phases counted by scintillation. In kind it is physicochemical. Here is the method:
A dehydroepiandrosterone(DHEA)-phosphocholine derivative was synthesized as follows: 1 mg of phosphocholine (calcium salt; Sigma Chemical, St. Louis, Mo.) was dissolved in 0.5 ml of formamide (Cat # S-7503; Lot # 55HO257; Sigma Chemical) and 0.5 ml of pyridine (Cat # P-4036; Lot # 55H1489; Sigma Chemical). 0.025 mCi of (1,2,6,7 ^3H(n)-Dehydroepiandrosterone (Cat # NET814; Lot # 3146097; 89.2 Ci/mmol; Dupont, NEN Products, Boston, Mass.) in 0.025 ml of ethanol was added. The reaction was catalyzed by the addition (as the dry solid) of 5 mg of dicyclohexylcarbodiimide (Cat # D-3129; Lot # 34hO647; Sigma Chemical). The reaction mixture was incubated overnight at room temperature. In the morning, 9 ml of water was added and the mixture extracted 3 times with 10 ml portions of benzene. The benzene extracts were combined and aliquots of both phases were counted in a scintillation counter. The results are set forth below:
The aqueous layer was re-extracted with benzene. The second benzene extraction yielded 272 cpm (0.01 M1) as a confirmation.
Free DHEA starting material would have been extracted quantitatively into benzene with this protocol.

The conditions of data set [5]: J. Med. Chem. 39:2156–2169, 1996; cited from earlier work.
Data set [6] has as its system enzyme on lymphocyte cell membrane that cleaves phosphocholine. The experiment in a line: Lymphocyte cell membrane enzyme that cleaves phosphocholine from other compounds. In kind it is cell-based. As to conditions: lymphocytes; data not shown. The text has this:
The conjugated therapeutic agents will be at least ten times more water soluble then the original alcohol. This will increase their bioavailability and decrease their metabolism to, e.g., the 3-glycoside in the case of steroids, which should be a major excretion pathway. The decreased glycoside formation will be caused by the presence of the phosphoester at that site. The derivative is not expected to be active prior to hydrolysis of the phospholipid group. […] The activity of this enzyme is stimulated ten-fold by TGF-α (data not shown). Without wishing to be bound by theory, it is believed that use of phospholipid-conjugated antibiotics of the present invention will lead to high concentrations of active agents at the site of an infection by the following mechanism. Lymphocytes are attracted to the site of an infection or inflammation where they release TGF-α, which, in turn, stimulates phospholipid hydrolysis in other subtypes. This same process will lead to local release of an active form of the antibiotic from the phospholipid diester conjugate. Because of the response of the enzyme to local concentrations of TGF-α, there should be a correspondingly high local concentration of the antibiotic. This will lead to effective therapy and lower toxicity.

Entries after “also recorded” stand apart in the source; their conditions may differ.

On to `C[C@]12CC[C@H](OS(=O)(=O)O)CC1=CC[C@@H]1[C@@H]2CC[C@]2(C)C(=O)CC[C@@H]12` [DHEA-sulfate], for which, in data set [1], the “Effect on DNCB-induced cutaneous hypersensitivity immune response” value is “similar, high level response” and the “Effect of dexamethasone on the response to the hormone” value (shortened to “Effect of dexamethasone”) is “not suppressed by dexamethasone”.

As for `C[C@]12CC[C@@H](OP(=O)([O-])OCC[N+](C)(C)C)C[C@H]1CC[C@@H]1[C@@H]2CC[C@]2(C)C(=O)CC[C@@H]12`, in data set [2], the “Fraction not metabolized at each pass through the liver” value is reported as “about 80%”.

`C[C@]12CC[C@H](OP(=O)([O-])OCC[N+](C)(C)C)CC1=CC[C@@H]1[C@@H]2CC[C@]2(C)C(=O)CC[C@@H]12` [DHEA-PC, DHEA-3-Phosphocholine]: in data set [1], the “Effect on DNCB-induced cutaneous hypersensitivity immune response” value is given as “potentiated dinitrochlorobenzene-induced sensitization; also recorded: enhanced the cutaneous hypersensitivity immune response” and the “Effect of dexamethasone” value was “not suppressed by dexamethasone”. Moreover, the “Hydrolysis by neutral sphingomylenase” value in data set [3] is recorded as “hydrolyzed”. In addition, in data set [4] (0.01 M1, re-extraction of the aqueous layer with benzene), the “Radioactivity in second benzene extraction” value turned out to be 272 cpm. For the same compound, the “Radioactivity in aqueous phase” value in data set [4] (0.01 ml aliquot, after 3 extractions with 10 ml benzene, 3H label) was 10,729 cpm. Further, in data set [4] (0.01 ml aliquot, combined benzene extracts, 3H label), the “Radioactivity in benzene phase” value was 1,121 cpm. In addition, in data set [4] (water/benzene, free DHEA would have been extracted quantitatively into benzene), the “Phase in which the reaction product stays (hydrophilic character)” value is given as “remains in the aqueous phase”.

With `O=C1N(Cc2ccc(CO)cc2)[C@H](Cc2ccccc2)[C@H](O)[C@@H](O)[C@@H](Cc2ccccc2)N1Cc1ccc(CO)cc1` [DMP-323], the Aqueous solubility entry in data set [5] is “low”.

Regarding “TGF-α: factor released by lymphocytes that stimulates phospholipid hydrolysis”, the “Stimulation of the activity of the phosphocholine-cleaving enzyme” value in data set [6] is “ten-fold”.

Take `C[C@]12CC[C@H](O)CC1=CC[C@@H]1[C@@H]2CC[C@]2(C)C(=O)CC[C@@H]12` [DHEA, dehydroepiandrosterone]: in data set [1], the “Effect on DNCB-induced cutaneous hypersensitivity immune response” value was “similar, high level response” and the “Effect of dexamethasone” value is listed as “not suppressed by dexamethasone”.
